Source: US11584714B2 (priority 2018, dated 2023)
Counter-ions that a name gives are not always drawn. Like-named read-outs stand apart in the source and are kept apart here.

Key:
Type in all cases: biochemical
MASP-2 (CCP1-CCP2-SP) = MASP-2 (CCP1-CCP2-SP) (Homo sapiens (Human), UniProt O00187); test: biochemical
mMASP-2 = mMASP-2 (Mus musculus (Mouse), UniProt Q91WP0); test: Enzymatic inhibition of mMASP-2; conditions: read-out: mMASP-2 Ki
human α-thrombin = human α-thrombin (Homo sapiens (Human), UniProt P00734); test: Enzymatic assay for thrombin (Boc-VPR-AMC substrate)
[1] = selectivity for MASP-2 inhibition versus thrombin

Chain of mMASP-2 (Q91WP0 20-685): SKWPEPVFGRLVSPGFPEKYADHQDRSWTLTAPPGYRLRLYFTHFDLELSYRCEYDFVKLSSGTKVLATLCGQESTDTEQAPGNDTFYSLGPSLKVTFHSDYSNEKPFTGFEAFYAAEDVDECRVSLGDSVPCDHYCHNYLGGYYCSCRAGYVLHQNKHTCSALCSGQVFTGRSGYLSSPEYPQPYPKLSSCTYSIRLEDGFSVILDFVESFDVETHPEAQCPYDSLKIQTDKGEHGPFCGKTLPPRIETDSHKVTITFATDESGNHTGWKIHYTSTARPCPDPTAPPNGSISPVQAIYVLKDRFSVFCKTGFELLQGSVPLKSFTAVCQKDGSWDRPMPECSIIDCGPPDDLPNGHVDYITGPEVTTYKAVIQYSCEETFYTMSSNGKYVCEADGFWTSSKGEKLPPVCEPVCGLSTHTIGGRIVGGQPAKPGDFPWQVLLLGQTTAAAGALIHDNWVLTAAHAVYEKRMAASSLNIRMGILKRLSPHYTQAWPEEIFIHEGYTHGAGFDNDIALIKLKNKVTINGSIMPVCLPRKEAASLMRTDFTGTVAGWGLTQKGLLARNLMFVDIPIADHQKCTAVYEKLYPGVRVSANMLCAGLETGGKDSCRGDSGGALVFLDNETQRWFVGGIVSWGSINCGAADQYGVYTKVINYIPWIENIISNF
Chain of MASP-2 (CCP1-CCP2-SP) (O00187 445-686): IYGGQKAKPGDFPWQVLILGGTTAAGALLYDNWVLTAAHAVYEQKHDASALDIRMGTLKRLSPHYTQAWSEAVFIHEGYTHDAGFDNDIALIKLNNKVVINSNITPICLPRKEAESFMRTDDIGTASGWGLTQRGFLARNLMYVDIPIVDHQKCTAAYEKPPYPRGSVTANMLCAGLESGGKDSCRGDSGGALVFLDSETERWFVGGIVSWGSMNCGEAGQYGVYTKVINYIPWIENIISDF

For `Cc1nc(N)ccc1CNC(=O)[C@H](C)NC(=O)[C@H]1C[C@H](Cc2ccc(-c3cccnc3)cc2)CN1` [compound 1357, (2R,4S)—N—((S)-1-(((6-Amino-2-methylpyridin-3-yl)methyl)amino)-1-oxopropan-2-yl)-4-(4-(pyridin-3-yl)benzyl)pyrrolidine-2-carboxamide Di-trifluoroacetate salt], which Ki (MASP-2 (CCP1-CCP2-SP); read-out: MASP-2 Ki) is on record?
Its Ki is less than 500 nM.

And the “MASP-2 vs. thrombin selectivity” value (MASP-2 (CCP1-CCP2-SP); [1])?
The value was “**** (≥100-fold)”.

And the Ki (mMASP-2)?
Its Ki is less than 500 nM.

What about the Ki (human α-thrombin; read-out: Thrombin Ki) of the same compound?
The Ki was greater than 25 µM.

For `Cc1ccc([C@H]2CCN[C@@H](C(=O)N[C@@H](C)C(=O)NCc3ccc(C(=N)N)cc3)C2)cc1` [compound 1249, (2R,4S)—N—((S)-1-((4-Carbamimidoylbenzyl)amino)-1-oxopropan-2-yl)-4-(p-tolyl)piperidine-2-carboxamide], which Ki (MASP-2 (CCP1-CCP2-SP); read-out: MASP-2 Ki) is on record?
The Ki was less than 500 nM.

What about the “MASP-2 vs. thrombin selectivity” value (MASP-2 (CCP1-CCP2-SP); [1]) of the same compound?
Its value is “**** (≥100-fold)”.

What about the Ki (mMASP-2) of the same compound?
Its Ki is less than 500 nM.

What about the Ki (human α-thrombin; Thrombin Ki (μM)) of the same compound?
The Ki was 10 to 25 µM.

With `Cc1cccc(C[C@@H]2CN[C@@H](C(=O)N[C@@H](C)C(=O)NCc3cc(Cl)cc(C)c3O)C2)c1` [compound 1369, (2R,4S)—N—((S)-1-((5-Chloro-2-hydroxy-3-methylbenzyl)amino)-1-oxopropan-2-yl)-4-(3-methylbenzyl)pyrrolidine-2-carboxamide Hydrochloride] as the compound, how does the Ki (MASP-2 (CCP1-CCP2-SP); read-out: MASP-2 Ki) read?
The Ki was less than 500 nM.

What about the “MASP-2 vs. thrombin selectivity” value (MASP-2 (CCP1-CCP2-SP); [1]) of the same compound?
The value was “**** (≥100-fold)”.

What about the Ki (mMASP-2) of the same compound?
Its Ki is less than 500 nM.

And the Ki (human α-thrombin; read-out: Thrombin Ki)?
The Ki was greater than 25 µM.

How did the Ki (MASP-2 (CCP1-CCP2-SP); read-out: MASP-2 Ki) turn out when `C[C@H](NC(=O)[C@H]1C[C@@H](c2ccccc2)CCN1)C(=O)NCc1cc(Cl)ccc1-n1cnnn1` [compound 1426, (2R,4S)—N—((S)-1-((5-Chloro-2-(1H-tetrazol-1-yl)benzyl)amino)-1-oxopropan-2-yl)-4-phenylpiperidine-2-carboxamide Trifluoroacetate] was run?
The Ki was less than 500 nM.

And the “MASP-2 vs. thrombin selectivity” value (MASP-2 (CCP1-CCP2-SP); [1])?
The value was “*** (≥25 to <100-fold)”.

What about the Ki (mMASP-2) of the same compound?
Its Ki is 500 to 2500 nM.

What about the Ki (human α-thrombin; Thrombin Ki (μM)) of the same compound?
The Ki was 0.5 to 2.5 µM.

`C[C@H](NC(=O)[C@H]1C[C@H](Cc2ccc(F)c(Cl)c2)CN1CC(=O)O)C(=O)NCc1cnc2c(c1)c(Cl)cn2C` [compound 1484, 2-((2R,4S)-2-(((S)-1-(((3-Chloro-1-methyl-1H-pyrrolo[2,3-b]pyridin-5-yl)methyl)amino)-1-oxopropan-2-yl)carbamoyl)-4-(3-chloro-4-fluorobenzyl)pyrrolidin-1-yl)acetic acid Trifluoroacetate salt] was tested. Which Ki (MASP-2 (CCP1-CCP2-SP)) did it give?
Its Ki is 500 to 2500 nM.

What about the Ki (mMASP-2) of the same compound?
The Ki was 500 to 2500 nM.

And the Ki (human α-thrombin; read-out: Thrombin Ki)?
Its Ki is greater than 25 µM.

What does the source list for `CCc1nc(N)ccc1CNC(=O)[C@H](C)NC(=O)[C@H]1C[C@H](c2ccccc2)CN1` [compound 1323, (2R,4R)—N—((S)-1-(((6-Amino-2-ethylpyridin-3-yl)methyl)amino)-1-oxopropan-2-yl)-4-phenylpyrrolidine-2-carboxamide Dihydrochloride]?
Ki (MASP-2 (CCP1-CCP2-SP); read-out: MASP-2 Ki): > 25000 nM; Ki (mMASP-2): 10000 to 25000 nM; Ki (human α-thrombin; read-out: Thrombin Ki): > 25 µM

Which Ki (MASP-2 (CCP1-CCP2-SP)) does the source give for `C[C@H](NC(=O)[C@H]1C[C@H](c2ccccc2)CN1)C(=O)NCc1cc(Br)cc2cn[nH]c12` [compound 1462, (2R,4R)—N—((S)-1-(((5-bromo-1H-indazol-7-yl)methyl)amino)-1-oxopropan-2-yl)-4-phenylpyrrolidine-2-carboxamide] here?
The Ki was 500 to 2500 nM.

And the “MASP-2 vs. thrombin selectivity” value (MASP-2 (CCP1-CCP2-SP); [1])?
Its value is “** (≥5.0 to <25-fold)”.

What about the Ki (mMASP-2) of the same compound?
Its Ki is 2500 to 10000 nM.

And the Ki (human α-thrombin; Thrombin Ki (μM))?
Its Ki is 10 to 25 µM.

With `COc1ccc(C[C@@H]2CN[C@@H](C(=O)N[C@@H](C)C(=O)NCc3ccc(N)nc3C)C2)cc1Cl` [compound 1475, (2R,4S)—N—((S)-1-(((6-Amino-2-methylpyridin-3-yl)methyl)amino)-1-oxopropan-2-yl)-4-(3-chloro-4-methoxybenzyl)pyrrolidine-2-carboxamide Di-trifluoroacetate salt] as the compound, how does the Ki (MASP-2 (CCP1-CCP2-SP); read-out: MASP-2 Ki) read?
The Ki was less than 500 nM.

What about the “MASP-2 vs. thrombin selectivity” value (MASP-2 (CCP1-CCP2-SP); [1]) of the same compound?
Its value is “**** (≥100-fold)”.

And the Ki (mMASP-2)?
The Ki was less than 500 nM.

And the Ki (human α-thrombin; Thrombin Ki (μM))?
Its Ki is 10 to 25 µM.

For `Cc1nc(N)ccc1CNC(=O)[C@H](C)NC(=O)[C@H]1C[C@H](Cc2ccc3ccccc3c2)CN1` [compound 1338, (2R,4S)—N—((S)-1-(((6-Amino-2-methylpyridin-3-yl)methyl)amino)-1-oxopropan-2-yl)-4-(naphthalen-2-ylmethyl)pyrrolidine-2-carboxamide Dihydrochloride], which Ki (MASP-2 (CCP1-CCP2-SP); read-out: MASP-2 Ki) is on record?
The Ki was less than 500 nM.

And the “MASP-2 vs. thrombin selectivity” value (MASP-2 (CCP1-CCP2-SP); [1])?
The value was “**** (≥100-fold)”.

And the Ki (mMASP-2)?
The Ki was less than 500 nM.

What about the Ki (human α-thrombin; read-out: Thrombin Ki) of the same compound?
Its Ki is greater than 25 µM.

How did the “MASP-2 vs. thrombin selectivity” value (MASP-2 (CCP1-CCP2-SP); MASP-2 inhibition versus thrombin) turn out when `Cc1cc(C)cc(CC[C@@H](N)C(=O)N[C@@H](C)C(=O)NCc2ccc(C(=N)N)cc2)c1` [compound 1073] was run?
Its value is “** (5.0 to 25-fold)”.

And the Ki (MASP-2 (CCP1-CCP2-SP); read-out: MASP-2 Ki)?
Its Ki is less than 500 nM.

And the Ki (mMASP-2)?
Its Ki is less than 500 nM.

What about the Ki (human α-thrombin; read-out: Thrombin Ki) of the same compound?
Its Ki is less than 0.5 µM.

How did the Ki (MASP-2 (CCP1-CCP2-SP); read-out: MASP-2 Ki) turn out when `CCc1cccc([C@H]2CN[C@@H](C(=O)N[C@@H](C)C(=O)NCc3ccc(C(=N)N)cc3)C2)c1` [compound 1302, (2R,4S)—N—((S)-1-((4-Carbamimidoylbenzyl)amino)-1-oxopropan-2-yl)-4-(3-ethylphenyl)pyrrolidine-2-carboxamide Dihydrochloride] was run?
Its Ki is less than 500 nM.

What about the “MASP-2 vs. thrombin selectivity” value (MASP-2 (CCP1-CCP2-SP); [1]) of the same compound?
Its value is “*** (≥25 to <100-fold)”.

And the Ki (mMASP-2)?
The Ki was less than 500 nM.

And the Ki (human α-thrombin; Thrombin Ki (μM))?
The Ki was 0.5 to 2.5 µM.

Which Ki (MASP-2 (CCP1-CCP2-SP); read-out: MASP-2 Ki) does the source give for `Cc1nc(N)ccc1CNC(=O)[C@H](C)NC(=O)[C@H]1C[C@H](Cc2ccc3nonc3c2)CN1` [compound 1470, (2R,4S)—N—((S)-1-(((6-Amino-2-methylpyridin-3-yl)methyl)amino)-1-oxopropan-2-yl)-4-(benzo[c][1,2,5]oxadiazol-5-ylmethyl)pyrrolidine-2-carboxamide Di-trifluoroacetate salt] here?
Its Ki is less than 500 nM.

And the “MASP-2 vs. thrombin selectivity” value (MASP-2 (CCP1-CCP2-SP); [1])?
The value was “**** (≥100-fold)”.

And the Ki (mMASP-2)?
The Ki was less than 500 nM.

And the Ki (human α-thrombin; Thrombin Ki (μM))?
Its Ki is 2.5 to 10 µM.

Which results are given for `Cc1nc(N)ccc1CNC(=O)[C@H](C)NC(=O)[C@H]1C[C@H](Cc2ccc(N3CCCC3=O)cc2)CN1` [compound 1391, (2R,4S)—N—((S)-1-(((6-Amino-2-methylpyridin-3-yl)methyl)amino)-1-oxopropan-2-yl)-4-(4-(2-oxopyrrolidin-1-yl)benzyl)pyrrolidine-2-carboxamide Di-trifluoroacetate salt]?
Ki (MASP-2 (CCP1-CCP2-SP); read-out: MASP-2 Ki): < 500 nM; MASP-2 vs. thrombin selectivity (MASP-2 (CCP1-CCP2-SP); [1]): **** (≥100-fold); Ki (mMASP-2): < 500 nM; Ki (human α-thrombin; read-out: Thrombin Ki): > 25 µM

`C[C@H](NC(=O)[C@H]1C[C@H](c2ccccc2)CN1)C(=O)NCc1cc2cnccc2[nH]1` [compound 1463, (2R,4R)—N—((S)-1-(((1H-Pyrrolo[3,2-c]pyridin-2-yl)methyl)amino)-1-oxopropan-2-yl)-4-phenylpyrrolidine-2-carboxamide Di-trifluoroacetate salt] was tested. Which Ki (MASP-2 (CCP1-CCP2-SP); read-out: MASP-2 Ki) did it give?
The Ki was less than 500 nM.

What about the Ki (mMASP-2) of the same compound?
Its Ki is less than 500 nM.

And the Ki (human α-thrombin; read-out: Thrombin Ki)?
Its Ki is greater than 25 µM.

With `C[C@H](NC(=O)[C@H](N)CCc1ccccc1)C(=O)NCc1cccnc1N` [compound 1346, (R)-2-Amino-N—((S)-1-(((2-aminopyridin-3-yl)methyl)amino)-1-oxopropan-2-yl)-4-phenylbutanamide Dihydrochloride] as the compound, how does the Ki (MASP-2 (CCP1-CCP2-SP)) read?
The Ki was 10000 to 25000 nM.

What about the Ki (mMASP-2) of the same compound?
The Ki was greater than 25000 nM.

What about the Ki (human α-thrombin; read-out: Thrombin Ki) of the same compound?
The Ki was greater than 25 µM.

How did the Ki (MASP-2 (CCP1-CCP2-SP); read-out: MASP-2 Ki) turn out when `Cc1cc(Cl)cc(CNC(=O)[C@H](C)NC(=O)[C@H]2C[C@@H](c3ccccc3)CCN2)c1O` [compound 1365, (2R,4S)—N—((S)-1-((5-Chloro-2-hydroxy-3-methylbenzyl)amino)-1-oxopropan-2-yl)-4-phenylpiperidine-2-carboxamide Hydrochloride] was run?
Its Ki is less than 500 nM.

And the “MASP-2 vs. thrombin selectivity” value (MASP-2 (CCP1-CCP2-SP); [1])?
Its value is “**** (≥100-fold)”.

And the Ki (mMASP-2)?
Its Ki is less than 500 nM.

What about the Ki (human α-thrombin; read-out: Thrombin Ki) of the same compound?
Its Ki is greater than 25 µM.

`CC[C@H](NC(=O)[C@H](N)CCc1ccccc1)C(=O)NCc1ccc(C(=N)N)cc1` [compound 1289, (R)-2-Amino-N—((S)-1-((4-carbamimidoylbenzyl)amino)-1-oxobutan-2-yl)-4-phenylbutanamide] was tested. Which Ki (MASP-2 (CCP1-CCP2-SP); read-out: MASP-2 Ki) did it give?
Its Ki is less than 500 nM.

What about the “MASP-2 vs. thrombin selectivity” value (MASP-2 (CCP1-CCP2-SP); [1]) of the same compound?
Its value is “−− (<1.0-fold)”.

And the Ki (mMASP-2)?
Its Ki is less than 500 nM.

What about the Ki (human α-thrombin; read-out: Thrombin Ki) of the same compound?
The Ki was less than 0.5 µM.
